Our source for the CC50 and EC50 values is patent US20120010164A1, “ANTIVIRAL AGENTS” (priority 2009, published 2012).

Data set [1] in a line: Cellular toxicity counterscreen (CC50). The class given is cell-based. The settings on record: human, HuH-7 hepatoma cells. The procedure: The compounds of the present invention were also evaluated for cellular toxicity and anti-viral specificity in the counterscreens described below.
Data set [2] has as its system subgenomic HCV Replicon in hepatoma (HuH-7) cells. In words: Assay for inhibition of HCV RNA replication (replicon, in situ ribonuclease protection SPA). The settings on record: Hepatitis C virus, HuH-7 replicon cells, activity ranges. It is filed as cell-based. The method, then: The compounds of the present invention were also evaluated for their ability to affect the replication of Hepatitis C Virus RNA in cultured hepatoma (HuH-7) cells containing a subgenomic HCV Replicon. The details of the assay are described below. This Replicon assay is a modification of that described in V. Lohmann, F. Korner, J-O. Koch, U. Herian, L. Theilmann, and R. Bartenschlager, “Replication of a Sub-genomic Hepatitis C Virus RNAs in a Hepatoma Cell Line,” Science 285:110 (1999).
The assay was an in situ Ribonuclease protection, Scintillation Proximity based-plate assay (SPA). 10,000-40,000 cells were plated in 100-200 μL of media containing 0.8 mg/mL G418 in 96-well cytostar plates (Amersham). Compounds were added to cells at various concentrations up to 100 μM in 1% DMSO at time 0 to 18 h and then cultured for 24-96 h. Cells were fixed (20 min, 10% formalin), permeabilized (20 min, 0.25% Triton X-100/PBS) and hybridized (overnight, 50° C.) with a single-stranded ^33P RNA probe complementary to the (+) strand NS5B (or other genes) contained in the RNA viral genome. Cells were washed, treated with RNAse, washed, heated to 65° C. and counted in a Top-Count Inhibition of replication was read as a decrease in counts per minute (cpm).
Human HuH-7 hepatoma cells, which were selected to contain a subgenomic replicon, carry a cytoplasmic RNA consisting of an HCV 5′ non-translated region (NTR), a neomycin selectable marker, an EMCV IRES (internal ribosome entry site), and HCV non-structural proteins NS3 through NS5B, followed by the 3′ NTR.

In data set [1], `[N-]=[N+]=N[C@]1(CO)O[C@@H](n2cc(F)c3c(N)ncnc32)[C@@H](F)[C@@H]1O` [Example 2, 7-(4-azido-2-deoxy-2-fluoro-β-D-arabinofuranosyl)-5-fluoro-7H-pyrrolo[2,3-d]pyrimidin-4-amine] gave a CC50 of more than 100 µM. Further, in data set [2], the EC50 was 20 to 100 µM.
The like results for `[N-]=[N+]=N[C@]1(CO)O[C@@H](n2ccc3c(N)ncnc32)[C@@H](F)[C@@H]1O` [Example 1, 7-(4-azido-2-deoxy-2-fluoro-β-D-arabinofuranosyl)-7H-pyrrolo[2,3-d]pyrimidin-4-amine] were, in that order, more than 100 µM and less than 20 µM.
The compound `[N-]=[N+]=N[C@]1(CO)OC(n2cnc3c(N)ncnc32)[C@@H](F)[C@@H]1O` (stereo partly drawn) [Example 3, 9-(4-azido-2-deoxy-2-fluoro-b-D-arabinofuranosyl)-9H-purin-6-amine] gave a CC50 in data set [1] of more than 100 µM. Further, the EC50 in data set [2] was more than 100 µM.
